This test deals with human MGL from HeLa cells (Homo sapiens (Human), UniProt Q99685). Nature of the test: MGL in vitro activity assay: cleavage of [glycerol-1,3-3H]-oleyl glycerol, activated carbon filtration. The note with it: 300 nM [Glycerol-1,3-3H]-oleyl glycerol, endogenously expressed MGL from HeLa cells, one hour incubation. Format: biochemical. The method, then:
The assay used to measure the in vitro activity of MGL is adapted from the assay used for another serine hydrolase (FAAH) described in Wilson et al., 2003 (A high-throughput-compatible assay for determining the activity of fatty acid amide hydrolase. Wilson S J, Lovenberg T W, Barbier A J. Anal Biochem. 2003 Jul. 15; 318(2):270-5.). The assay consists of combining endogenously expressed MGL from HeLa cells with test compounds, adding [glycerol-1,3-^3H]-oleyl glycerol, incubating for one hour, and then measuring the amount of cleaved [1,3-^3H]-glycerol that passes through an activated carbon filter. The amount of cleaved, tritiated glycerol passing through the carbon filter is proportional to the activity of the MGL enzyme in a particular well/test condition.
Standard conditions for this assay combine 300 nM [Glycerol-1,3-^3H]-oleyl glycerol with human MGL from HeLa cells and test compounds for one hour, after which the reaction is filtered through activated carbon and tritium is measured in the flow through. The test compound concentration in screening mode is 10 μM, while the highest compound concentration in IC50 assays is determined empirically. MGL is the predominant hydrolase in HeLa cells/cell homogenates.
human MGL from HeLa cells, sequence (Q99685 whole entry): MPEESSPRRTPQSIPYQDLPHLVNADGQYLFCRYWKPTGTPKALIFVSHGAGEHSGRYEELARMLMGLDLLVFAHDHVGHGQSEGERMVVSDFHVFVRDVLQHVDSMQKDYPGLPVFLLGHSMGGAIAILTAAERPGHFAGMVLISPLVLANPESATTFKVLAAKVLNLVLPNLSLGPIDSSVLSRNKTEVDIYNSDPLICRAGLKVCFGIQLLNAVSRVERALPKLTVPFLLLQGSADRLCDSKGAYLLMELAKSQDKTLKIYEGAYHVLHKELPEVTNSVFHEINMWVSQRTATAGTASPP
In general, IC50 refers to the concentration that inhibits the measured activity by half. A lower IC50 goes with greater potency in that assay. On to `Cc1ccc(C(=O)N2CCc3c(nn(C)c3-c3cc(C(F)(F)F)nn3C)[C@@H]2C)c(OC(F)(F)F)c1` [Example 110, (S)-(2,7-Dimethyl-3-(1-methyl-3-(trifluoromethyl)-1H-pyrazol-5-yl)-2,4,5,7-tetrahydro-6H-pyrazolo[3,4-c]pyridin-6-yl)(4-methyl-2-(trifluoromethoxy)phenyl)methanone], for which the IC50 was 0.65 µM.

Consider `Cc1cc(C(=O)N2CCc3c(nn(C)c3-c3cnn(C)c3C(F)(F)F)[C@@H]2C)c2cc(F)ccc2n1` [Example 34, (S)-(2,7-Dimethyl-3-(1-methyl-5-(trifluoromethyl)-1H-pyrazol-4-yl)-2,4,5,7-tetrahydro-6H-pyrazolo[3,4-c]pyridin-6-yl)(6-fluoro-2-methylquinolin-4-yl)methanone], for which the IC50 came out at 2.19 µM.

In turn, `Cc1cc2ncsc2cc1C(=O)N1CCc2c(nn(C)c2-c2cc(C(F)(F)F)nn2C)[C@@H]1C` [Example 134, (S)-(2,7-Dimethyl-3-(1-methyl-3-(trifluoromethyl)-1H-pyrazol-5-yl)-2,4,5,7-tetrahydro-6H-pyrazolo[3,4-c]pyridin-6-yl)(5-methylbenzo[d]thiazol-6-yl)methanone] showed an IC50 of 0.087 µM.

In the case of `C[C@H]1c2nn(C)c(-c3cc(C(F)(F)F)n(C)n3)c2CCN1C(=O)c1ccnc2c1cnn2C` [Example 118, (S)-(2,7-Dimethyl-3-(1-methyl-5-(trifluoromethyl)-1H-pyrazol-3-yl)-2,4,5,7-tetrahydro-6H-pyrazolo[3,4-c]pyridin-6-yl)(1-methyl-1H-pyrazolo[3,4-b]pyridin-4-yl)methanone], inhibition was half-maximal at 0.047 µM (IC50).

As to `Cn1nc(C(F)(F)F)cc1-c1c2c(nn1C)[C@@H]1CCC[C@H](C2)N1C(=O)c1n[nH]c2ncc(F)cc12` [Example 81, (5-Fluoro-1H-pyrazolo[3,4-b]pyridin-3-yl)((5R,9S)-2-methyl-3-(1-methyl-3-(trifluoromethyl)-1H-pyrazol-5-yl)-4,5,6,7,8,9-hexahydro-2H-5,9-epiminocycloocta[c]pyrazol-10-yl)methanone], the IC50 was 0.1 µM.

The compound `C[C@H]1c2nn(C)c(-c3cc(C(F)(F)F)nn3C)c2CCN1C(=O)c1nccc2ccccc12` [Example 44, (S)-(2,7-Dimethyl-3-(1-methyl-3-(trifluoromethyl)-1H-pyrazol-5-yl)-2,4,5,7-tetrahydro-6H-pyrazolo[3,4-c]pyridin-6-yl)(isoquinolin-1-yl)methanone] returned a half-maximal inhibitory concentration (IC50) of 0.019 µM.

Compound `COc1cc(C)ccc1C(=O)N1CCc2c(nn(C)c2-c2cc(C(F)(F)F)nn2C)[C@@H]1C` [Example 41, (S)-(2,7-Dimethyl-3-(1-methyl-3-(trifluoromethyl)-1H-pyrazol-5-yl)-2,4,5,7-tetrahydro-6H-pyrazolo[3,4-c]pyridin-6-yl)(2-methoxy-4-methylphenyl)methanone] registered an IC50 of 0.062 µM.

In turn, `C[C@H]1c2nn(C)c(-c3cc(C(F)(F)F)nn3C)c2CCN1C(=O)c1cnc2cc(F)cc(F)c2c1` [Example 18, (S)-(5,7-Difluoroquinolin-3-yl)(2,7-dimethyl-3-(1-methyl-3-(trifluoromethyl)-1H-pyrazol-5-yl)-2,4,5,7-tetrahydro-6H-pyrazolo[3,4-c]pyridin-6-yl)methanone] returned an IC50 of 0.36 µM.

Consider `Cc1nc2ccc(C(=O)N3CCc4c(nn(C)c4-c4cc(C(F)(F)F)nn4C)[C@@H]3C)cc2s1` [Example 58, (S)-(2,7-Dimethyl-3-(1-methyl-3-(trifluoromethyl)-1H-pyrazol-5-yl)-2,4,5,7-tetrahydro-6H-pyrazolo[3,4-c]pyridin-6-yl)(2-methylbenzo[d]thiazol-6-yl)methanone], for which the IC50 came out at 0.055 µM.

With `COc1nccc(C(=O)N2CCc3c(nn(C)c3-c3cnn(C)c3C(F)(F)F)[C@@H]2C)c1C` [Example 60, (S)-(2,7-Dimethyl-3-(1-methyl-5-(trifluoromethyl)-1H-pyrazol-4-yl)-2,4,5,7-tetrahydro-6H-pyrazolo[3,4-c]pyridin-6-yl)(2-methoxy-3-methylpyridin-4-yl)methanone], the IC50 is 4.25 µM.

On to `C[C@H]1c2nn(C)c(-c3cc(C(F)(F)F)nn3C)c2CCN1C(=O)c1cccc(N2CC3(COC3)C2)c1Cl` [Example 4, (S)-(2-Chloro-3-(2-oxa-6-azaspiro[3.3]heptan-6-yl)phenyl)(2,7-dimethyl-3-(1-methyl-3-(trifluoromethyl)-1H-pyrazol-5-yl)-2,4,5,7-tetrahydro-6H-pyrazolo[3,4-c]pyridin-6-yl)methanone], for which the IC50 amounted to 0.02 µM.

The compound `COc1cccc(C(=O)N2CCc3c(nn(C)c3-c3cc(C(F)(F)F)nn3C)[C@@H]2C)c1Cl` [Example 35, (S)-(2-Chloro-3-methoxyphenyl)(2,7-dimethyl-3-(1-methyl-3-(trifluoromethyl)-1H-pyrazol-5-yl)-2,4,5,7-tetrahydro-6H-pyrazolo[3,4-c]pyridin-6-yl)methanone] yielded an IC50 of 0.025 µM.

Compound `C[C@H]1c2nn(C)c(-c3cc(C(F)(F)F)n(C)n3)c2CCN1C(=O)c1cccc2cnn(C)c12` [Example 117, (S)-(2,7-Dimethyl-3-(1-methyl-5-(trifluoromethyl)-1H-pyrazol-3-yl)-2,4,5,7-tetrahydro-6H-pyrazolo[3,4-c]pyridin-6-yl)(1-methyl-1H-indazol-7-yl)methanone] had an IC50 of 0.16 µM.

With `C[C@H]1c2nn(C)c(-c3cc(C(F)(F)F)n(C)n3)c2CCN1C(=O)c1ccnc2c1ccn2C` [Example 49, (S)-(2,7-Dimethyl-3-(1-methyl-5-(trifluoromethyl)-1H-pyrazol-3-yl)-2,4,5,7-tetrahydro-6H-pyrazolo[3,4-c]pyridin-6-yl)(1-methyl-1H-pyrrolo[2,3-b]pyridin-4-yl)methanone], the IC50 stood at 0.0032 µM. Compared with the last compound, the IC50 is about 50-fold lower.

`Cc1ccc2cc(C(=O)N3CCc4c(nn(C)c4-c4cc(C(F)(F)F)nn4C)[C@@H]3C)c(F)cc2n1` [Example 91, (S)-(2,7-Dimethyl-3-(1-methyl-3-(trifluoromethyl)-1H-pyrazol-5-yl)-2,4,5,7-tetrahydro-6H-pyrazolo[3,4-c]pyridin-6-yl)(7-fluoro-2-methylquinolin-6-yl)methanone] yielded a 50% inhibitory concentration (IC50) of 0.21 µM.

In the case of `Cc1ccc2c(C(=O)N3CCc4c(nn(C)c4-c4cc(C(F)(F)F)nn4C)[C@@H]3C)cccc2n1` [Example 1, (S)-(2,7-Dimethyl-3-(1-methyl-3-(trifluoromethyl)-1H-pyrazol-5-yl)-2,4,5,7-tetrahydro-6H-pyrazolo[3,4-c]pyridin-6-yl)(2-methylquinolin-5-yl)methanone], the IC50 is 0.035 µM.

As to `C[C@H]1c2nn(C)c(-c3cnn(C)c3C(F)(F)F)c2CCN1C(=O)c1ccnc2c1ccn2C` [Example 52, (S)-(2,7-Dimethyl-3-(1-methyl-5-(trifluoromethyl)-1H-pyrazol-4-yl)-2,4,5,7-tetrahydro-6H-pyrazolo[3,4-c]pyridin-6-yl)(1-methyl-1H-pyrrolo[2,3-b]pyridin-4-yl)methanone], the IC50 is 0.42 µM.

Consider `C[C@H]1c2nn(C)c(-c3cc(C(F)(F)F)nn3C)c2CCN1C(=O)c1cc(F)ccc1-n1cccn1` [Example 37, (S)-(2,7-Dimethyl-3-(1-methyl-3-(trifluoromethyl)-1H-pyrazol-5-yl)-2,4,5,7-tetrahydro-6H-pyrazolo[3,4-c]pyridin-6-yl)(5-fluoro-2-(1H-pyrazol-1-yl)phenyl)methanone], for which the IC50 came to 0.38 µM.

In turn, `COc1nn(C)cc1-c1c2c(nn1C)[C@H](C)N(C(=O)c1ccc3ncccc3c1)CC2` [Example 16, (S)-(3-(3-Methoxy-1-methyl-1H-pyrazol-4-yl)-2,7-dimethyl-2,4,5,7-tetrahydro-6H-pyrazolo[3,4-c]pyridin-6-yl)(quinolin-6-yl)methanone] yielded an IC50 of 0.37 µM.

For `Cn1nc(C(F)(F)F)cc1-c1c2c(nn1C)[C@@H]1CCC[C@H](C2)N1C(=O)c1ccc2ncccc2c1` [Example 80, ((5R,9S)-2-Methyl-3-(1-methyl-3-(trifluoromethyl)-1H-pyrazol-5-yl)-4,5,6,7,8,9-hexahydro-2H-5,9-epiminocycloocta[c]pyrazol-10-yl)(quinolin-6-yl)methanone], the midpoint of inhibition, the IC50, lay at 0.022 µM.

With `Cc1ccc2nc(C)cc(C(=O)N3CCc4c(nn(C)c4-c4cc(C(F)(F)F)nn4C)[C@@H]3C)c2c1` [Example 25, (S)-(2,7-Dimethyl-3-(1-methyl-3-(trifluoromethyl)-1H-pyrazol-5-yl)-2,4,5,7-tetrahydro-6H-pyrazolo[3,4-c]pyridin-6-yl)(2,6-dimethylquinolin-4-yl)methanone], the IC50 came out at 0.09 µM. Compared with the last compound, the IC50 is about 4.1-fold higher.

As for `C[C@H]1c2nn(C)c(-c3cc(C(F)(F)F)nn3C)c2CCN1C(=O)c1ccc2c(c1)OCCC2` [Example 55, (S)-Chroman-7-yl(2,7-dimethyl-3-(1-methyl-3-(trifluoromethyl)-1H-pyrazol-5-yl)-2,4,5,7-tetrahydro-6H-pyrazolo[3,4-c]pyridin-6-yl)methanone], the 50% inhibitory concentration (IC50) came to 0.11 µM.

Regarding `COc1cccc(C(=O)N2[C@@H]3CCC[C@H]2c2nn(C)c(-c4cc(C(F)(F)F)n(C)n4)c2C3)c1C` [Example 79, (3-Methoxy-2-methylphenyl)((5R,9S)-2-methyl-3-(1-methyl-5-(trifluoromethyl)-1H-pyrazol-3-yl)-4,5,6,7,8,9-hexahydro-2H-5,9-epiminocycloocta[c]pyrazol-10-yl)methanone], the IC50 is 0.016 µM. Compared with the last compound, the IC50 is about 6.9-fold lower.

The record behind these values is patent US11891387B2, “Monoacylglycerol lipase modulators” (Janssen Pharmaceutica NV, priority 2020, dated 2024).
